Like-named read-outs stand apart in the source and are kept apart here.
What was measured:
[1] = tested on: L1210 murine leukemia cells (dCK^+); assay: radioactive tracer uptake assay, L1210 parental cells; type: cell-based; conditions: for dependence of retention and phosphorylation on dCK expression: L1210 wild type vs 10K cells, 1 hour incubation
Excerpt: (§1) To evaluate whether [^18F]D-FAC PET can determine resistance to gemcitabine and Ara-C, we used a previously described experimental model based on the L1210 murine leukemia cells and their gemcitabine/Ara-C resistant 10K derivatives^20. The molecular defect responsible for resistance in the L1210 10K cells is loss of dCK expression due to a genetic modification of chromosome 5 in the 3′ region of the dCK gene. The 10K cell line was derived by exposing the parental L1210 cells to increasing concentrations of gemcitabine^20; before experiments, we confirmed that L1210 10K cells lack expression of dCK at the protein level (FIG. 13). Thus, to determine whether D-FAC retention correlates with gemcitabine resistance in these cells, we performed radioactive tracer uptake assays using [^3H]D-FAC with [^3H]-FLT used as a negative control. We observed that the gemcitabine-resistant L1210-10K cell line retained much lower amounts of [^3H]D-FAC in contrast to the gemcitabine-sensitive L1210 parental cell line (FIG. 14A). In fact, [^3H]D-FAC uptake was 40-fold higher in dCK^+ cells compared to cells lacking dCK activity (dCK^+=1288 fmols/1×10^5 cells; dCK-=34 fmols/1×10^5 cells; p<0.001). In contrast, [^3H]FLT uptake was indistinguishable between these cell lines. FIG. 14B presents a [^3H]D-FAC kinase assay with the L1210 cell lines using [^3H]D-FAC as a substrate (1 microgram protein/reaction). In dCK positive cells shown in FIG. 14B, D-FAC phosphorylation was 52-fold higher than in dCK deficient cells (dCK^+=62 fmols; dCK^−=1.2 fmols; p=0.028). Reintroduction of dCK into the L1210-10K cells restored [^18F]D-FAC uptake and phosphorylation (FIG. 14), thus further confirming the critical role of this nucleoside kinase in regulating D-FAC metabolism.
(§2) Each cell type was incubated separately with each of the following: [^18F]L-FAC, and [^18F]-CA, and the positive control [^18F]D-FAC. The cells were incubated with [^18F]L-FAC, [^18F]-CA, and [^18F]D-FAC for 1 hour. Following successive washes, intracellular radioactivity was measured by scintillation counting to obtain the result shown in FIG. 17A.

[2] = tested on: L1210 wild type or 10K subcutaneous tumors; assay: PET of subcutaneous L1210 wild type and 10K tumors; type: in vivo, SCID mice
Description: To investigate whether [^18F]D-FAC PET can distinguish gemcitabine-sensitive cancer cells from the resistant cancer cells in vivo, mice were injected with L1210 wild type or 10K cells to establish subcutaneous tumors; mice were scanned with [^18F]FDG PET to confirm that implanted cells were viable and growing in vivo and [^18F]D-FAC PET scans were carried out to compare D-FAC accumulation in gemcitabine sensitive versus resistant cells. […] The mice were injected 4 days prior to imaging.
Mice were challenged with the MoMSV onco-retrovirus.

[3] = chromatography of plasma after intravenous injection of probe (deamination); type: in vivo, C57BL/6 mouse; conditions: plasma 10 and 45 minutes after intravenous injection
[4] = tested on: pancreatic inflammatory lesions; assay: PET/CT scan of human with chronic pancreatitis; type: in vivo; conditions: person
Excerpt: FIG. 30 presents PET/CT scans of a human with chronic pancreatitis. The pancreas head 301 is visible.

[5] = chromatography after incubation of probe with human plasma; conditions: 10 and 45 minutes incubation
Description: FIG. 19 presents chromatographs of [^18F]D-FAC (FIG. 19C) and [^18F]L-FAC (FIG. 19D) in plasma 10 minutes and 45 minutes after the probe was incubated with human plasma.

[6] = tested on: T lymphocytes from pmel-1 T cell receptor (TCR) transgenic mice; assay: retention of ^3H-labeled nucleoside analogs in naïve and proliferating primary T cells; type: cell-based, mouse; conditions: 1 hr incubation, 72 hrs after stimulation
Description: In order to identify candidates for PET probes that can distinguish between activated T cells and non-activated, naïve T cells, we conducted a radioactive uptake assay, the results of which are shown in FIG. 1. […] These measurements were performed after incubating cells with radioactive compounds for 1 hr and performing successive washes to remove unincorporated probes. […] For example, we identified compounds #1 through #15 (see FIG. 2A for chemical structures) as PET probe candidates useful for detecting activated T cells. FIG. 2A presents substrates of dCK labeled with the ^18F positron emitting radioisotope.
T lymphocytes from pmel-1 T cell receptor (TCR) transgenic mice were stimulated ex vivo using a melanoma antigen (1 micromolar hgp 10025-33). These cells were then cultured for radioactive uptake and kinase assays that were performed 72 hours post-stimulation. […] The plate was then washed 5 times with media containing 5% fetal calf serum (FCS) by using the Millipore Vacuum Manifold (Billerica, Mass.); the amount of incorporated probe was measured by scintillation counting using the PerkinElmer Microbeta (Waltham, Mass.). […]
FIG. 1 identifies fluorinated deoxycytidine analogs retained in activated versus naive T lymphocytes and incorporated into DNA. […] Following successive washes, intracellular radioactivity was measured by scintillation counting. […]

[7] = tested on: MoMSV-induced sarcomas; assay: microPET/CT in oncoretrovirus (MoMSV) sarcoma model of anti-tumor immunity
Description: All the mice used in these studies were bred and maintained according to the guidelines of the Department of Laboratory Animal Medicine (DLAM) at the University of California, Los Angeles. For the oncoretrovirus-induced sarcoma model, C57/BL6 mice were challenged intramuscularly in the right triceps with the Moloney murine sarcoma and leukemia virus complex (MoMSV) in a volume of 100 uL of PBS as described previously^6. B6-MRL-Fas^1pr/J mice used for systemic autoimmunity studies were purchased from the Jackson Laboratory (stock number 000482). To monitor the immunosuppressive treatment, these mice were given intraperitoneal injections of dexamethasone (DEX, 10 mg/kg) at 24 hr intervals and were scanned by microPET/CT 24 hr after the last injection. Animals were anesthetized with 2% isoflurane, injected intravenously with 200 microCi [^18F]D-FAC and then scanned with microPET/CT; mice were sacrificed immediately after imaging. Organs were rapidly excised, weighed, and the radioactivity was measured in a well counter. After decay correction, results were expressed as percent of the injected dose of activity per gram of tissue (% ID/g). Other mice were anesthetized with 2% isoflurane and injected intravenously with 1 mCi [^18F]D-FAC. After 1 hr, mice were euthanized, embedded in 3% carboxymethyl cellulose (CMC, Sigma), and frozen in 100% ethanol with dry ice for 45 min. The 50 micron sections were cut using a whole body cryostat, (PMV, Stockholm, Sweden); samples were exposed overnight on BAS-TR2025 plates (Fujifilm Life Science, Stamford, Conn.). Imaging plates were read using a Fujibas-5000 phosphorimager (16 bit, 25 micron resolution; Fujifilm Life Science).
In this model, antigen-specific T cells primed by immunodominant epitopes encoded by viral gag and env genes rapidly expand in spleen and tumor draining lymph nodes (DLNs) and then traffic to the tumor lesion which is rejected over a period of 2-5 weeks^17,18. In fact, the kinetics of T cell responses against MoMSV-induced sarcomas have been studied extensively using conventional ex vivo approaches and our group has used PET reporter gene imaging to visualize tumor rejection in this model^17. To analyze whether the [^18F]D-FAC microPET/CT imaging can detect sites of localized immune activation, mice were scanned before and after the virus challenge.
To determine whether [^18F]D-FAC can provide unique information regarding localized immune activation via the afore-mentioned model, the mice imaged by [^18F]D-FAC were also scanned on consecutive days using [^18F]FDG and [^18F]FLT.

[8] = biological target: T1, deoxycytidine kinase (dCK) (Mus musculus, UniProt P43346); assay: kinase assay with L1210 cell line lysates; type: biochemical, murine; conditions: L1210 WT and 10K lysates, 20 minutes incubation
T1 construct: endogenous in cells; host or cells: L1210 murine leukemia cells (wild type), whole-cell lysate; L1210-10K (dCK-deficient) as negative control
T1 sequence (P43346 whole entry): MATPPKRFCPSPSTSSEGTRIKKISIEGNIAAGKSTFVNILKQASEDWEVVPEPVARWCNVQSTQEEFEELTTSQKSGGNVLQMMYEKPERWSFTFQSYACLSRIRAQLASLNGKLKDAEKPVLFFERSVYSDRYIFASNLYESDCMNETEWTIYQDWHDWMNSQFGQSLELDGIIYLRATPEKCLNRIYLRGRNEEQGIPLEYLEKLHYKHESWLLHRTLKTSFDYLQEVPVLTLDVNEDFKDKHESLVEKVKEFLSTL
Excerpt: as §1, §2
Lysates from L1210 wildtype (WT) and dCK deficient (10K) cells were incubated for 20 minutes with [^18F]L-FMAC; phosphorylated products were measured by scintillation counting.

[9] = spleen, 60 min after intravenous injection, 3 mice
[10] = C57/BL6, mouse, in vivo, iv, 60 min

## Cc1cn([C@@H]2O[C@H](CO)[C@@H](O)[C@@H]2F)c(=O)[nH]c1=O [[^18F]FMAU, 1-(2′-Deoxy-2′-fluoro-β-D-arabinofuranosyl)-5-methyluracil]
60 min after intravenous injection
  accumulation in thymus and spleen: neither [^18F]FLT nor [^18F]D-FMAU showed detectable accumulation
[9]
  Spleen, % ID/g per organ normalized to % ID/g muscle: 1.08 +/− 0.27 % ID/g per organ normalized to % ID/g muscle
thymus, 60 min after intravenous injection, 3 mice
  Thymus, % ID/g per organ normalized to % ID/g muscle: 1.33 +/− 0.24 % ID/g per organ normalized to % ID/g muscle

## Nc1nc(Cl)nc2c1ncn2[C@@H]1O[C@H](CO)[C@@H](O)[C@@H]1[18F] [[^18F]-CA, 2-chloro-9-(2′-deoxy-2′-[^18F]fluoro-β-D-arabinofuranosyl)adenine]
[1]
  dependence of retention and phosphorylation on dCK expression: requires dCK expression

## Nc1ccn([C@H]2O[C@@H](CO)[C@H](O)[C@H]2[18F])c(=O)n1 [[^18F]L-FAC, 1-(2′-deoxy-2′-[^18F]fluoro-β-L-arabinofuranosyl)cytosine]
[1]
  dependence of retention and phosphorylation on dCK expression: requires dCK expression
[2]; L1210-10K, 4 days after injection
  retention/visualization in dCK deficient, gemcitabine resistant tumors: not visualization
[2]; L1210 WT, 4 days after injection
  retention/visualization in dCK positive, gemcitabine sensitive tumors: allows visualization
[3]
  resistance to deamination in plasma after injection into mice: more resistant to deamination than [^18F]D-FAC
[4]
  accumulation in pancreatic inflammatory lesions: clear accumulation
[5]
  stability in human plasma: improved stability relative to [^18F]D-FAC
60 minutes after intravenous injection
  biodistribution compared with [^18F]D-FAC: resembles that of [^18F]D-FAC

## Nc1ccn([C@@H]2O[C@H](CO)[C@@H](O)C2(F)F)c(=O)n1 [dFdC, 2′,2′-difluorodeoxycytidine, reference compound]
[6]
  difference in probe retention by proliferating compared to naïve T cells: > 20 fold

## Cc1cn([C@H]2C[C@H](F)[C@@H](CO)O2)c(=O)[nH]c1=O [[^18F]FLT, 3′-fluoro-3′-deoxythymidine]
[7]; day 14
  accumulation at sites of immune activation: no detectable
[10]
  Spleen, % ID/g per organ normalized to % ID/g muscle: 1.02 +/− 0.21 % ID/g per organ normalized to % ID/g muscle
  Thymus, % ID/g per organ normalized to % ID/g muscle: 1.22 +/− 0.23 % ID/g per organ normalized to % ID/g muscle
  accumulation in thymus and spleen: neither [^18F]FLT nor [^18F]D-FMAU showed detectable accumulation

## Cc1cn([C@H]2O[C@@H](CO)[C@H](O)[C@H]2[18F])c(=O)nc1N [[^18F]L-FMAC]
[3]
  resistance to deamination in plasma after injection into mice: resistant to deamination
[8]
  dependence of retention and phosphorylation on dCK expression: requires dCK expression

## Cc1cn([C@H]2C[C@H](F)[C@@H](CO)O2)c(=O)[nH]c1=O [[^3H]FLT, 3′-fluoro-3′-deoxythymidine, reference compound]
[1]; negative control
  uptake compared between L1210 and L1210-10K cell lines: indistinguishable

## 2-[^18F]fluoro-2-deoxy-D-glucose [[^18F]FDG, reference compound]
[2]; mouse, in vivo
  accumulation in gemcitabine sensitive versus resistant cells: equivalent
[7]; tumor lesions
  accumulation in tumor over background (contralateral muscle tissue): 8.2±4.2 % ID/g tumor over background
mouse, in vivo
  retention in the brain and the myocardium: substantially accumulates
[9]
  Spleen, % ID/g per organ normalized to % ID/g muscle: 1.69 +/− 0.16 % ID/g per organ normalized to % ID/g muscle

From patent US8101740B2, “Positron emission tomography probes for imaging immune activation and selected cancers” (The Regents of the University of California, priority 2007, dated 2012)
